# From PubChem BioAssay AID248 (DTP/NCI, 2004)
# Values joined by “and” are separate entries in the source; they are usually repeats but may differ in a detail not shown here. Equal entries are not always repeated. Inconclusive results and toxic doses are left out.
# Test system: L1210 leukemia ip in BDF1 mice, survival T/C
# Experiment: NCI In Vivo Anticancer Drug Screen. Data for tumor model L1210 Leukemia (intraperitoneal) in B6D2F1 (BDF1) mice
# Details: endpoint: mean survival time, higher = longer survival
# Outline: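 Tumor was transplanted into mice, which were then dosed with test compound or vehicle alone. Survival was recorded for each group, and the treated figure was expressed relative to the control figure.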
# [1] = dose: 100.0 mg/kg/injection, schedule: Q04DX002 (ip), vehicle: saline with Tween-80
smiles,measurement,setting,value
COc1cc(C2=N/C(=C\c3cccc([N+](=O)[O-])c3)C(=O)O2)cc(OC)c1OC,T/C,"dose: 25.0 mg/kg/injection, schedule: Q04DX002 (ip), vehicle: saline with Tween-80",87 % of control
same,T/C,"dose: 50.0 mg/kg/injection, schedule: Q04DX002 (ip), vehicle: saline with Tween-80",90 % of control
same,T/C,[1],93 % of control and 89 % of control
NC(=S)NCC12CC3CC(CC(C3)C1)C2,T/C,"dose: 3.0 mg/kg/injection, schedule: Q04DX002 (ip), vehicle: Klucel (hydroxypropylcellulose) (HPC)",101 % of control and 114 % of control
same,T/C,"dose: 6.0 mg/kg/injection, schedule: Q04DX002 (ip), vehicle: Klucel (hydroxypropylcellulose) (HPC)",106 % of control and 120 % of control
same,T/C,"dose: 12.0 mg/kg/injection, schedule: Q04DX002 (ip), vehicle: Klucel (hydroxypropylcellulose) (HPC)",112 % of control
same,T/C,"dose: 12.5 mg/kg/injection, schedule: Q04DX002 (ip), vehicle: Klucel (hydroxypropylcellulose) (HPC)",105 % of control
same,T/C,"dose: 25.0 mg/kg/injection, schedule: Q04DX002 (ip), vehicle: Klucel (hydroxypropylcellulose) (HPC)",101 % of control
O=S(=O)(Nc1ccccc1)c1ccccc1,T/C,"dose: 100.0 mg/kg/injection, schedule: Q04DX003 (ip), vehicle: Klucel (hydroxypropylcellulose) (HPC)",98 % of control
same,T/C,"dose: 200.0 mg/kg/injection, schedule: Q04DX003 (ip), vehicle: Klucel (hydroxypropylcellulose) (HPC)",107 % of control
same,T/C,"dose: 400.0 mg/kg/injection, schedule: Q04DX003 (ip), vehicle: Klucel (hydroxypropylcellulose) (HPC)",98 % of control
NC(=S)N/N=C\c1ncnc2nc[nH]c12,T/C,"dose: 0.5 mg/kg/injection, schedule: Q03HX024 (ip), vehicle: saline",111 % of control
same,T/C,"dose: 1.0 mg/kg/injection, schedule: Q03HX024 (ip), vehicle: saline",121 % of control
same,T/C,"dose: 5.0 mg/kg/injection, schedule: Q01DX001 (ip), vehicle: saline",114 % of control
same,T/C,"dose: 8.0 mg/kg/injection, schedule: Q03HX024 (ip), vehicle: saline",150 % of control
same,T/C,"dose: 10.0 mg/kg/injection, schedule: Q01DX001 (ip), vehicle: saline",118 % of control
same,T/C,"dose: 20.0 mg/kg/injection, schedule: Q01DX001 (ip), vehicle: saline",114 % of control
O=C1C=C(c2ccccc2)C(=O)c2ccccc21,T/C,"dose: 100.0 mg/kg/injection, schedule: Q01DX001 (ip), vehicle: Klucel (hydroxypropylcellulose) (HPC)",106 % of control
same,T/C,"dose: 200.0 mg/kg/injection, schedule: Q01DX001 (ip), vehicle: Klucel (hydroxypropylcellulose) (HPC)",101 % of control
same,T/C,"dose: 400.0 mg/kg/injection, schedule: Q01DX001 (ip), vehicle: Klucel (hydroxypropylcellulose) (HPC)",105 % of control
CC(C)(C)N1CC(C(=O)c2ccc3ccccc3c2)C1c1ccccc1 (configuration not stated),T/C,"dose: 100.0 mg/kg/injection, schedule: Q04DX003 (ip), vehicle: saline with Tween-80",93 % of control
same,T/C,"dose: 200.0 mg/kg/injection, schedule: Q04DX003 (ip), vehicle: saline with Tween-80",98 % of control
same,T/C,"dose: 400.0 mg/kg/injection, schedule: Q04DX003 (ip), vehicle: saline with Tween-80",88 % of control
O=C(Nc1ccc(C(=O)Nc2ccc(C3=NCCN3)cc2)cc1)Nc1ccc(C2=NCCN2)cc1,T/C,"dose: 1.88 mg/kg/injection, schedule: Q01DX Z (ip), vehicle: saline",117 % of control
same,T/C,"dose: 3.75 mg/kg/injection, schedule: Q01DX Z (ip), vehicle: saline",117 % of control
same,T/C,"dose: 7.5 mg/kg/injection, schedule: Q01DX Z (ip), vehicle: saline",123 % of control
same,T/C,"dose: 30.0 mg/kg/injection, schedule: Q01DX Z (ip), vehicle: carboxymethylcellulose (CMC)",166 % of control
same,T/C,"dose: 30.0 mg/kg/injection, schedule: Q01DX Z (sc), vehicle: saline",97 % of control
same,T/C,"dose: 44.0 mg/kg/injection, schedule: Q01DX007 (oral), vehicle: carboxymethylcellulose (CMC)",103 % of control
same,T/C,"dose: 60.0 mg/kg/injection, schedule: Q01DX Z (ip), vehicle: carboxymethylcellulose (CMC)",218 % of control
same,T/C,"dose: 60.0 mg/kg/injection, schedule: Q01DX Z (sc), vehicle: saline",109 % of control
same,T/C,"dose: 62.5 mg/kg/injection, schedule: Q01DX010 (oral), vehicle: saline",109 % of control
same,T/C,"dose: 88.0 mg/kg/injection, schedule: Q01DX007 (oral), vehicle: carboxymethylcellulose (CMC)",101 % of control
same,T/C,"dose: 120.0 mg/kg/injection, schedule: Q01DX Z (ip), vehicle: carboxymethylcellulose (CMC)",192 % of control
same,T/C,"dose: 120.0 mg/kg/injection, schedule: Q01DX Z (sc), vehicle: saline",120 % of control
same,T/C,"dose: 125.0 mg/kg/injection, schedule: Q01DX010 (oral), vehicle: saline",108 % of control
same,T/C,"dose: 175.0 mg/kg/injection, schedule: Q01DX007 (oral), vehicle: carboxymethylcellulose (CMC)",101 % of control
same,T/C,"dose: 240.0 mg/kg/injection, schedule: Q01DX Z (sc), vehicle: saline",154 % of control
same,T/C,"dose: 250.0 mg/kg/injection, schedule: Q01DX010 (oral), vehicle: saline",106 % of control
same,T/C,"dose: 350.0 mg/kg/injection, schedule: Q01DX007 (oral), vehicle: carboxymethylcellulose (CMC)",100 % of control
same,T/C,"dose: 500.0 mg/kg/injection, schedule: Q01DX010 (oral), vehicle: saline",106 % of control
same,T/C,"dose: 700.0 mg/kg/injection, schedule: Q01DX007 (oral), vehicle: carboxymethylcellulose (CMC)",100 % of control
S=P(Nc1ccccc1)(Nc1ccccc1)Oc1cc(Cl)c(Cl)cc1Cl,T/C,"dose: 100.0 mg/kg/injection, schedule: Q01DX001 (ip), vehicle: saline",92 % of control
same,T/C,"dose: 200.0 mg/kg/injection, schedule: Q01DX001 (ip), vehicle: saline",93 % of control
same,T/C,"dose: 400.0 mg/kg/injection, schedule: Q01DX001 (ip), vehicle: saline",92 % of control
CC12CCC(=O)C=C1CCC1C2CCC2(C)C(C(=O)COC(=O)c3cc([N+](=O)[O-])c(N4CC4)c([N+](=O)[O-])c3)CCC12 (configuration not stated),T/C,"dose: 50.0 mg/kg/injection, schedule: Q01DX001 (sc), vehicle: steriod suspending solution",95 % of control
same,T/C,"dose: 60.0 mg/kg/injection, schedule: Q01DX015 (ip), vehicle: saline",88 % of control
same,T/C,"dose: 90.0 mg/kg/injection, schedule: Q01DX015 (ip), vehicle: saline",86 % of control
same,T/C,"dose: 100.0 mg/kg/injection, schedule: Q01DX001 (sc), vehicle: steriod suspending solution",106 % of control
same,T/C,"dose: 135.0 mg/kg/injection, schedule: Q01DX015 (ip), vehicle: saline",88 % of control
same,T/C,"dose: 200.0 mg/kg/injection, schedule: Q01DX001 (sc), vehicle: steriod suspending solution",97 % of control
same,T/C,"dose: 200.0 mg/kg/injection, schedule: Q01DX015 (ip), vehicle: saline",91 % of control
same,T/C,"dose: 400.0 mg/kg/injection, schedule: Q01DX001 (sc), vehicle: steriod suspending solution",101 % of control
Cc1ccc(S(=O)(=O)N/N=C/C=C\C=N\NS(=O)(=O)c2ccc(C)cc2)cc1,T/C,"dose: 100.0 mg/kg/injection, schedule: Q01DX009 (ip), vehicle: Klucel (hydroxypropylcellulose) (HPC)",98 % of control
same,T/C,"dose: 200.0 mg/kg/injection, schedule: Q01DX009 (ip), vehicle: Klucel (hydroxypropylcellulose) (HPC)",96 % of control
same,T/C,"dose: 400.0 mg/kg/injection, schedule: Q01DX009 (ip), vehicle: Klucel (hydroxypropylcellulose) (HPC)",90 % of control
O=C(O)CN(Cc1ccccc1)Sc1ccccc1[N+](=O)[O-],T/C,"dose: 50.0 mg/kg/injection, schedule: Q01DX009 (ip), vehicle: other",98 % of control
same,T/C,"dose: 100.0 mg/kg/injection, schedule: Q01DX009 (ip), vehicle: other",91 % of control
same,T/C,"dose: 100.0 mg/kg/injection, schedule: Q04DX003 (ip), vehicle: other",98 % of control
same,T/C,"dose: 200.0 mg/kg/injection, schedule: Q04DX003 (ip), vehicle: other",96 % of control
Cc1ccc(S(=O)(=O)N/N=C\C(O)C(O)C(O)CO)cc1 (configuration not stated),T/C,[1],97 % of control
same,T/C,"dose: 200.0 mg/kg/injection, schedule: Q04DX002 (ip), vehicle: saline with Tween-80",94 % of control
same,T/C,"dose: 400.0 mg/kg/injection, schedule: Q04DX002 (ip), vehicle: saline with Tween-80",97 % of control
COc1cc(C(=O)c2cocc2C(=O)c2ccc3c(c2)OCO3)cc(OC)c1OC,T/C,"dose: 50.0 mg/kg/injection, schedule: Q01DX009 (ip), vehicle: acetone",110 % of control
same,T/C,"dose: 100.0 mg/kg/injection, schedule: Q01DX009 (ip), vehicle: acetone",94 % of control
same,T/C,"dose: 200.0 mg/kg/injection, schedule: Q01DX009 (ip), vehicle: acetone",112 % of control
same,T/C,"dose: 400.0 mg/kg/injection, schedule: Q01DX009 (ip), vehicle: acetone",110 % of control
CCCN=Cc1cc(Cl)ccc1O.CCCN=Cc1cc(Cl)ccc1O.[Ni],T/C,"dose: 100.0 mg/kg/injection, schedule: Q01DX008 (sc), vehicle: olive oil, sesame oil, peanut oil",104 % of control
same,T/C,"dose: 200.0 mg/kg/injection, schedule: Q01DX008 (sc), vehicle: olive oil, sesame oil, peanut oil",98 % of control
same,T/C,"dose: 400.0 mg/kg/injection, schedule: Q01DX008 (sc), vehicle: olive oil, sesame oil, peanut oil",86 % of control
O=c1c2nccnc2[nH]n1-c1ccccc1,T/C,"dose: 25.0 mg/kg/injection, schedule: Q04DX003 (ip), vehicle: Klucel (hydroxypropylcellulose) (HPC)",90 % of control
same,T/C,"dose: 50.0 mg/kg/injection, schedule: Q04DX003 (ip), vehicle: Klucel (hydroxypropylcellulose) (HPC)",95 % of control
